Experimental data as given in patent publication US5462933A, “Modified bile acid conjugates, and their use as pharmaceuticals” (Hoechst Aktiengesellschaft, priority 1989, dated 1995).

Key:
Assay in all cases: Photoaffinity labeling of bile acid-binding proteins in hepatocytes in the presence of competitor
67,000 (albumin) = target: T1, 67,000 (albumin) (Rattus norvegicus, UniProt P02770); conditions: decrease in labeling relative to control
T1 construct: freshly isolated hepatocytes from rat liver; endogenous in cells; host or cells: freshly isolated rat hepatocytes
T1 sequence (P02770 25-608): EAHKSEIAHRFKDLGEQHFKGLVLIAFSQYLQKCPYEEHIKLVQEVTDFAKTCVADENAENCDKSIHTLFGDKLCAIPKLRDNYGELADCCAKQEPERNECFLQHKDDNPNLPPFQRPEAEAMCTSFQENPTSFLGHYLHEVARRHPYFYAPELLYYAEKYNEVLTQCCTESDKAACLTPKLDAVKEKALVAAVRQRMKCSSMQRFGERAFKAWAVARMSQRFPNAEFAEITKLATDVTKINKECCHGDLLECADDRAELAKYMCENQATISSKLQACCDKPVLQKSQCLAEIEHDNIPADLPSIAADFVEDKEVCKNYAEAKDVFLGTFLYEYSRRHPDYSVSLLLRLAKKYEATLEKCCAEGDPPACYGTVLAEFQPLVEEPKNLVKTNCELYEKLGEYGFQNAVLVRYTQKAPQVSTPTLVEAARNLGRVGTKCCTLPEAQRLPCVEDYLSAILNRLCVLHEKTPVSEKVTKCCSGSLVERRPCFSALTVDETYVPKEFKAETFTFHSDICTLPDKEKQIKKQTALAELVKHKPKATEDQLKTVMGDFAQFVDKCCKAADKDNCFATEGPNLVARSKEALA
Excerpt: (§1) The molecules of these physiologically relevant binding proteins for bile acids were identified and characterized by the method of photoaffinity labeling. The principle of this method consists in binding a photoreactive radioactively labeled bile acid derivative to the physiological binding protein analogously to the natural bile acids. By irradiation with UV light, highly reactive chemical intermediates such as carbenes, nitrenes or radicals are generated in this derivative which, owing to their high reactivity, immediately react with the binding proteins by addition to double bonds or insertion in single bonds and bind covalently to these. By means of this covalent linkage of the radioactive bile acid derivative with the binding protein, the binding proteins are then also radioactively labeled and can be identified by a separation of the various proteins of a liver cell, for example by electrophoresis, and their molecular weight determined.
If such a photoaffinity labeling is carried out in the presence of a substance X' which also binds to the bile acid-binding proteins, then X' will compete with the radioactive bile acid derivative for binding to the bile acid-binding proteins; the radioactive labeling of the corresponding binding proteins will thus be lower in the presence of X'. […]

[1] = tested on: 33,000 (binding protein in mitochondria); parameters: species or system rat
Excerpt: as §1
(§2) If such a photoaffinity labeling is carried out in the presence of a substance X' which also binds to the bile acid-binding proteins, then X' will compete with the radioactive bile acid derivative for binding to the bile acid-binding proteins; the radioactive labeling of the corresponding binding proteins will thus be lower in the presence of X'.
(§3) 3.6×10^6 freshly isolated hepatocytes from rat liver (about 3 mg of protein) in 1.5 ml of buffer I (118 mM NaCl, 4.74 mM KCl, 0.59 mM KH2 PO4, 0.59 mM Na2 HPO4 ×2 H2 O, 1.185 mM MgCl2 ×6 H2 O, 24.87 mM NaHCO3, 1.25 mM CaCl2, 5.5 mM D-glucose, pH 7.35, buffer aerated with carbogen (95% O2 /5% CO2) for 1 h) were incubated at 37° C. […] in the dark with 1.25 μM (25 μCi) of (7,7-azo-3α-12α-dihydroxy-5β[3-^3 H]cholan-24-oyl)-2-aminoethanesulfonic acid in the absence or in the presence of 250 μM "Example 3" and then irradiated at […] with 16 RPR 3500 Å-lamps for 5 min in a Rayonet RPR-100 photoreactor. The cell suspension was then diluted with 10 ml of ice-cold buffer I and the cells sedimented by centrifuging at 1000×g for 3 minutes. The cells were resuspended again in 10 ml of buffer I and again sedimented by centrifugation. The precipitate was taken up in 600 μl of tris/HCl buffer (pH 6.8)/2% sodium dodecylsulfate (SDS)/5% 2-mercaptoethanol/10% glycerol/0.001% Bromophenol blue, heated to 90° C. for 5 min and centrifuged at 40,000×g for 20 min. The clear supernatant containing the solubilized proteins was used subsequently. In each case 100 μl (500 μg of protein) were applied to discontinuous SDS slab gels (200×170×2.7 mm, total acrylamide concentration 12%) and the proteins were separated by electrophoresis at a voltage of 50 V. After the electrophoresis, the gels were fixed in 12.5% strength trichloroacetic acid solution and stained using 0.08% Serva blue R 250 solution in 25% ethanol/8% acetic acid/67% water. After destaining, the gels were equilibrated in 1M sodium salicylate solution in 70% methanol for 20 min and then dried. The distribution of the radioactively labeled proteins was determined by the fluorographic method by placing the dried gels on Kodak-X-Omat AR X-ray films and exposing at -80° C. for 14 d. The blackened films were measured by densitometry. The decrease in the labeling of the various bile acid-binding proteins owing to the presence of "Example 3" during the photoaffinity labeling is given in % relative to the control.

[2] = tested on: 36,000 (transport protein in the cytoplasm); parameters: species or system rat
Excerpt: as §1, §2, §3

[3] = tested on: 43,000 (cytoskeletal protein); parameters: species or system rat
Excerpt: as §1, §2, §3

[4] = tested on: 48,000 (membrane transport protein); parameters: species or system rat
Excerpt: as §1, §2, §3

[5] = tested on: 54,000 (membrane transport protein); parameters: species or system rat
Excerpt: as §1, §2, §3

`C[C@H](CCC(=O)NCCS(=O)(=O)O)[C@H]1CC[C@H]2[C@@H]3CC[C@@H]4C[C@H](OC(=O)CCCc5ccc(N(CCCl)CCCl)cc5)CC[C@]4(C)[C@H]3CC(=O)[C@]12C` [Example 3] was tested, and the “% Inhibition of bile acid-binding proteins by 250 μM "Example 3"” value (“% Inhibition” below) (67,000 (albumin)) was 90.5%, the “% Inhibition” value [1] was 93.2% and the “% Inhibition” value [2] was 98.1%. For the same molecule, the “% Inhibition” value [3] was 88.1%, the “% Inhibition” value [4] was 88.8% and the “% Inhibition” value [5] was 89.6%.
